From patent publication US5597822A, “Pharmaceutical compositions for the prevention and/or treatment a gastrointestinal diseases” (Egis Pharmaceutical, priority 1993, dated 1997) come the findings set out here.

≈ marks a conversion by molar mass, not a printed value. Read-outs that look alike come from different tables or passages of the source.

Series [1] deals with gastric erosions induced by ethanol containing hydrochloric acid. The series can be described thus: Test with ethanol containing hydrochloric acid (gastric erosions). To be noted: for Inhibition of the erosion index, relative activity: ED50 of cetraxate divided by ED50 of compound tested; for ED50: po, rat, p.o., HCl/absolute ethanol 1 to 50; for Inhibition of the erosion frequency, relative activity: related to cetraxate. In kind it is in vivo, rat. Here is the method:
(§1) Rats of both sexes weighing 200 to 250 g, each previously starved for 24 hours, were used in this experiment. The lesions of gastric mucosa were induced by the oral administration of absolute ethanol in a dose of 1 ml/animal. After one hour following the administration, the animals were killed by an overdose of ether, the stomach was excised and the alterations of gastric mucosa were examined. The lengths of the erosions were measured and summarized (expressed in mm) for each stomach to obtain the erosion index by calculating the average value of the group. The inhibition was calculated in percentage by comparing the value of the group treated with ethanol to that of the control group treated only with the vehicle. Various doses of the compounds to be tested were administered, perorally, in a volume of 5 ml/kg using a pretreatment time of 60 minutes. Eight rats were used for each dose. /A. Robert, Gastroenterology 77, 761-767 (1979)/.
The principle of the method consists in that, simultaneously with the administration of absolute ethanol, hydrochloric acid is introduced to the stomach. Thus, the influence on systemic gastric acid inhibition action can be eliminated by the presence of the exogenous acid.
The reagent used in this test was a mixture of concentrated aqueous hydrochloric acid and absolute ethanol in a mass ratio of 1 to 50 in accordance with the dilution ratio used by Yamazaki et al., see Japan J. Pharmacol., 55, 415-424 (1991). Otherwise, the experiment was performed as described under test 2.1., however, in addition to the erosion index calculated from the lengths of the erosions in mm, the ratio of occurence of animals showing at least one gastric erosion within a test group, i.e. the erosion frequency, was also evaluated.

For series [2], the system named is gastric mucosa lesions induced by absolute ethanol. As to the kind of experiment: Gastroprotective activity, test with absolute ethanol (gastric mucosa erosions). In kind it is in vivo, rat. To be noted: for Relative activity related to the inhibition of the free acid: ED50 of gastric acid inhibition (Shay) related to ED50 of inhibition of gastric erosion; for ED50: po; for gastroprotective activity (in words): test with absolute ethanol. Here is the method: as §1
^x Relative activity = ED50 value of the gastric acid inhibition
related to the ED50 value of the inhibition of the gastric erosion.

The nature of another series: in vivo. The settings on record: mouse, po, NMRI mice, 7 days, "higher than" = highest dose administered without any death. On the procedure:
The acute toxicity was determined on NMRI strain mice of both sexes weighing 20 to 25 g each by using 6 animals for each dose. The compounds to be tested were administered perorally in a volume of 20 ml/kg, the highest dose applied was 1000 mg/kg. After the administration the animals were kept under usual laboratory conditions for 7 days.
The data given as "higher than" a certain value mean the highest dose administered without noting any death of animals.

In the next series the test system is Helicobacter pylori. The series can be described thus: Antibacterial effect on Helicobacter pylori (MIC, blood agar). The series is classed as cell-based. To be noted: Helicobacter pylori, 72 h. On the procedure:
Helicobacter pylori strains used in these experiments were obtained from the biopsial samples of the stomachs of patients suffering from ulcerative diseases of the gastrointestinal system. From the pure culture of isolates a thick suspension was prepared with cysteine-inositol solution suitable for lyophilisation, and the suspension obtained was maintained in cold-resistant plastic ampoules in a deep-freezing chamber at a temperature of about -196 ° C. For the determination of the inhibitory effect of the compounds tested on Helicobacter pylori, blood agar containing 10 mg/liter of vancomycin and 25 mg/liter of amphotericin B was used /C. A. M. McNulty and I. C. Dent: Susceptibility of clinical isolates of Campylobacter pylori to twenty one antimicrobial agents. Book of Abstracts, 4th European Congress of Clinical Microbiology, Nice (1989)/.
The plates containing the strains were cultivated at 37° C. for 72 hours under a gaseous atmosphere containing 10 per cent of carbon dioxide and 5 per cent of oxygen /D. M. Jones et al., J. Clin. Pathol., 37, 1002 (1984)/.
The culture media were inoculated by diluting the broth culture of the strains grown overnight or with a suspension prepared from a culture obtained on a solid medium. About 10^5 of germs were applied to the surface of each plate.
A series of dilution were prepared from the compound to be-tested. The MIC (minimal inhibiting concentration) value of the compounds tested was considered to be the lowest concentration inhibiting the growth of the test organism completely.

Setting [3] is: erosion frequency, read-out: Inhibition of the erosion frequency, ED50 p.o.
Setting [4] is: erosion index, read-out: Inhibition of the erosion index, ED50 p.o.
Setting [5] is: rat, 60 min pretreatment, absolute ethanol 1 ml/animal, erosion index.

For orientation: ED50 means the dose that gives a 50% effect, or the effect in half of the subjects. A word on the LD50: it is the dose expected to kill half of the subjects tested. A low value points to a more toxic substance. In the case of `CCCCNCC(O)CO/N=C1\CCCC\C1=C/c1ccc(Cl)c(Cl)c1` (racemic) [Compound A, (R,S)-2-(E)-(3,4-dichlorophenylmethylene)-1-(E)-[(3-butylamino-2-hydroxypropoxy)imino]cyclohexane], the “Inhibition of the erosion index, relative activity” value in series [1] (erosion index) was 3.1. Moreover, the figures for the ED50 in series [1] (setting [3]), in series [1] (setting [4]) and in series [2] (setting [5]) were 18.8 mg/kg, 7.1 mg/kg and 2 mg/kg, respectively. The “Inhibition of the erosion frequency, relative activity” value in series [1] (erosion frequency) is on record as 10.1. Besides, the “Relative activity related to the inhibition of the free acid” value in series [2] worked out at 60.5. For the same compound, the LD50 at 168 h in the series “in vivo” is above 1000 mg/kg.

For `CCCN(CCC)CC(O)CO/N=C1\CCCC\C1=C/c1ccc(Cl)c(Cl)c1` (racemic) [Compound B, (R,S)-2-(E)-(3,4-dichlorophenylmethylene)-1-(E)-[(3-dipropylamino-2-hydroxypropoxy)imino]cyclohexane], in series [1] (erosion index), the “Inhibition of the erosion index, relative activity” value stood at 1.7. Further, the ED50 in series [1] (setting [3]) came to 20.1 mg/kg; in series [1] (setting [4]), 12.7 mg/kg; in series [2] (setting [5]) it was 12.6 mg/kg. In addition, in series [1] (erosion frequency), the “Inhibition of the erosion frequency, relative activity” value worked out at 6.4. The “Relative activity related to the inhibition of the free acid” value in series [2] is listed as 12.5. The compound also displayed an LD50 at 168 h in “in vivo” above 1000 mg/kg.

Turning to `OC(CNC1CCCCC1)CO/N=C1\CCCC\C1=C/c1ccc(Cl)cc1` (racemic) [Compound E, (R,S)-2-(E)-(4-chlorophenylmethylene)-1-(E)-[(3-cyclohexylamino-2-hydroxypropoxy)imino]cyclohexane], the ED50 in series [1] (setting [4]) was 10.3 mg/kg. Moreover, the “Inhibition of the erosion frequency, relative activity” value in series [1] (erosion frequency) is 3-6. The compound further came in with an LD50 at 168 h in the series “in vivo” above 1000 mg/kg.

Consider `CCCCCCNCC(O)CO/N=C1\CCCC\C1=C/c1ccc(Cl)cc1` (racemic) [Compound F, (R,S)-2-(E)-(4-chlorophenylmethylene)-1-(E)-[(3-hexylamino-2-hydroxypropoxy)imino]-cyclohexane], for which, in series [1] (setting [4]), the ED50 is 7.2 mg/kg. The same compound registered an LD50 at 168 h in “in vivo” above 1000 mg/kg.

Usually MIC stands for the lowest concentration found to suppress growth. Take `CN(C)CC(O)CO/N=C1\CCCC\C1=C/c1ccc(Cl)cc1` (racemic) [Compound G, (R,S)-2-(E)-(4-chlorophenylmethylene)-1-(E)-[(3-dimethylamino-2-hydroxypropoxy)imino]cyclohexane]: the MIC amounted to 31.2 µg/mL (≈ 92.6 µM) with Helicobacter pylori (strain 867/90); 125 µg/mL (≈ 371 µM) in the series with Helicobacter pylori (strain 1596); 62.5 µg/mL (≈ 186 µM) against Helicobacter pylori (strain 3842); 31.2 µg/mL (≈ 92.6 µM) against Helicobacter pylori (strain 6656); 125 µg/mL (≈ 371 µM) against Helicobacter pylori (strain 6709). The ED50 in series [1] (setting [4]) amounted to 15.8 mg/kg. In series [1] (erosion frequency), the “Inhibition of the erosion frequency, relative activity” value is on record as 3-6. Further, the “Relative activity related to the inhibition of the free acid” value in series [2] is given as 60-125.

Consider `COc1ccccc1/C=C1\CCCC\C1=N/OCC(O)CN1CCN(c2ccccc2OC)CC1` (racemic) [Compound H, (R,S)-2-(E)-(2-methoxyphenylmethylene)-1-(E)-{3-[4-(2-methoxyphenyl)-1-piperazinyl]-2-hydroxypropoxyimino}cyclohexane], for which the “Inhibition of the erosion index, relative activity” value in series [1] (erosion index) is reported as 0.4-0.7. For the same compound, the values for the ED50 in series [1] (setting [3]), in series [1] (setting [4]) and in series [2] (setting [5]) were above 60 mg/kg, 30 to 60 mg/kg and 9.5 mg/kg, respectively. Moreover, in series [1] (erosion frequency), the “Inhibition of the erosion frequency, relative activity” value is recorded as below 3. The “Relative activity related to the inhibition of the free acid” value in series [2] is given as “higher than 20.0”.

Turning to `C=CCNCC(O)CO/N=C1\CCCC\C1=C/c1ccc(Cl)cc1` (racemic) [Compound I, (R,S)-2-(E)-(4-chlorophenylmethylene)-1-(E)-[(3-propenylamino-2-hydroxypropoxy)imino]cyclohexane], the “Inhibition of the erosion index, relative activity” value in series [1] (erosion index) turned out to be 2.6. Besides, the 50% effective dose (ED50) in series [1] (setting [3]) was 39.2 mg/kg; in series [1] (setting [4]), 8.6 mg/kg; in series [2] (setting [5]), 8.4 mg/kg. In addition, the “Inhibition of the erosion frequency, relative activity” value in series [1] (erosion frequency) is 4.8. Besides, the “Relative activity related to the inhibition of the free acid” value in series [2] was “higher than 10.0”.

For `CC(C)N(CC(O)CO/N=C1\CCCC\C1=C/c1ccc(Cl)cc1)C(C)C` (racemic) [Compound J, (R,S)-2-(E)-(4-chlorophenylmethylene)-1-(E)-[(3-diisopropylamino-2-hydroxypropoxy)imino]cyclohexane], in series [1] (erosion index), the “Inhibition of the erosion index, relative activity” value amounted to 3.7. For the same compound, the figures for the ED50 in series [1] (setting [3]), in series [1] (setting [4]) and in series [2] (setting [5]) were 19.1 mg/kg, 5.9 mg/kg and 7 mg/kg, respectively. Besides, the “Inhibition of the erosion frequency, relative activity” value in series [1] (erosion frequency) was determined as 9.9. In addition, the “Relative activity related to the inhibition of the free acid” value in series [2] was “about 25.0”.

For the compound `CC(C)NCC(O)CO/N=C1\CCCC\C1=C/c1ccc(Br)cc1` (racemic) [Compound K], in series [1] (erosion index), the “Inhibition of the erosion index, relative activity” value came out at 1.9. Also, the ED50 in series [1] (setting [3]) is 15 to 30 mg/kg; in series [1] (setting [4]), 11.4 mg/kg; in series [2] (setting [5]), 6.7 mg/kg. In addition, the “Inhibition of the erosion frequency, relative activity” value in series [1] (erosion frequency) was 6-12. In addition, the “Relative activity related to the inhibition of the free acid” value in series [2] is listed as “about 17.9”.

As for `CCCCNCC(O)CO/N=C1\CCCC\C1=C/c1ccc(Cl)cc1` (racemic) [Compound L, (R,S)-2-(E)-(4-chlorophenylmethylene)-1-(E)-[(3-butylamino-2-hydroxypropoxy)imino]cyclohexane], the “Inhibition of the erosion index, relative activity” value in series [1] (erosion index) is on record as 2.2. Also, the 50% effective dose (ED50) in series [1] (setting [3]) was 30 to 60 mg/kg; in series [1] (setting [4]) it was 9.8 mg/kg; in series [2] (setting [5]) it was 7.6 mg/kg. For the same compound, the “Inhibition of the erosion frequency, relative activity” value in series [1] (erosion frequency) was 3-6. In addition, the “Relative activity related to the inhibition of the free acid” value in series [2] came out at 18.3. The compound further showed an LD50 at 168 h in “in vivo” of 1300 mg/kg.

With `CN(C)CCCNCC(O)CO/N=C1\CCCC\C1=C/c1ccccc1` (racemic) [Compound M, (R,S)-2-(E)-(phenylmethylene)-1-(E)-{[3-(3-dimethylamino-1-propylamino)-2-hydroxypropoxy]imino}cyclohexane], the “Inhibition of the erosion index, relative activity” value in series [1] (erosion index) is 1.3. Moreover, the values for the ED50 in series [1] (setting [3]), in series [1] (setting [4]) and in series [2] (setting [5]) were 30 to 60 mg/kg, 17.5 mg/kg and 29.9 mg/kg, respectively. In addition, the “Inhibition of the erosion frequency, relative activity” value in series [1] (erosion frequency) was 3-6. Besides, in series [2], the “Relative activity related to the inhibition of the free acid” value is on record as “about 6.7”.

With `CNC(=NC#N)NCCSCc1nc[nH]c1C` [cimetidine, 2-cyano-1-methyl-3-[2-[[(5-methyl-4-imidazolyl)-methyl]thio]ethyl]guanidine, reference compound], in series [2], the “gastroprotective activity (in words)” value is recorded as “low gastroprotective action in a rather high dose”.

Take `COc1ccc2nc([S+]([O-])Cc3ncc(C)c(OC)c3C)[nH]c2c1` (stereo not shown) [omeprazole, 5-methoxy-2-[[(4-methoxy-3,5-dimethyl-2-pyridyl)methyl]sulfinyl]benzimidazole, reference compound]: the “gastroprotective activity (in words)” value in series [2] is on record as “low gastroprotective action in a rather high dose”. The LD50 at 168 h in “in vivo” was above 4000 mg/kg.

With `CN1CCN(CC(=O)N2c3ccccc3C(=O)Nc3cccnc32)CC1` [pirenzepine, reference compound], the “gastroprotective activity (in words)” value in series [2] is given as “low gastroprotective action in a rather high dose”.

For the compound “beta-D-fructofuranosyl alpha-D-glucopyranoside hydrogen sulfate basic aluminium salt [sucralfate, reference compound]”, in series [2] (rat, p.o., 60 min pretreatment, absolute ethanol 1 ml/animal, erosion index), the “Gastroprotective activity: test with absolute ethanol, ED50 p.o.” value is listed as 69.0 mg/kg. For the same compound, in series [2], the “gastroprotective activity (in words)” value was “nearly identical activity”.
